Experimental data from US7767398B2, “Means and methods for diagnosing and treating affective disorders” (Affectis Pharmaceuticals AG, priority 2003, dated 2010).

Test system: mice
Test: Porsolt's forced swim test
Assay type: in vivo, mouse
Conditions: 50 μM BzATP, 1 μl each side intrahippocampal, 24 hours after injection, DBA/2OIa mice
Method: Further validation of role of P2X7R in affective disorders was performed by examining its expression pattern in response to stress and treatment with antidepressant drugs. […] In parallel, a control group of mice was given vehicle solution (i.e. without paroxetine) using the same treatment regiment while a second control group of mice was left undisturbed and stress-free (i.e. untreated) during the same period of the experiments. At the end of the long-term treatment, part of the mice of each experimental group were tested in the dark/light box (test of anxiety behaviour) and in the Porsolt's forced swim test (test of depressive-like behaviour) to confirm the effectiveness of the treatment (FIG. 5). […] The other part of the experimental groups (i.e. mice without test experience) were decapitated, brains rapidly removed and frozen at −80° C. until usage.
The effects of P2X7R inhibition on depressive-like behaviour was assessed 24 hours and 48 hours after infusion of siRNA, control or vehicle according to the standard test paradigm, the Porsolt's forced swim test (Porsolt et al., Arch. Int. Pharmacodym. 229 (1977), 327-336; Porsolt, Rev. Neurosci. 11 (2000), 53-58). […] Compared to vehicle application, no influence of control double stranded RNA (5′-[…]-3′) on floating behaviour (passive stress coping) was detected. […] This interpretation becomes moreover evident when the effects of antidepressants on passive stress coping behaviour in the forced swim test are visualized (FIG. 5). Passive stress coping behaviour increased after acute intrahippocampal injection (bilateral, dentate gyrus) of siRNA targeting P2X7R. The Porsolt's forced swim test is a standard test used to assess the effectiveness of antidepressants and it has been proven by many studies that the test is selectively sensitive for these effects, given that the right animal model is used. The paradigm has been widely used to test pharmaceutical compounds and to validate animal models of depression, which show an increase in passive behaviour as do the mice where P2X7R has been inhibited (siRNA).
The forced swim test is a standard test that measures primary stress-induced reductions in avoidance or escape, termed behavioural despair. The test is used to determine the effectiveness of antidepressants, test new pharmaceutical compounds and validate animal models of depression (Porsolt et al., Arch. Int. Pharmacodym. 229 (1977), 327-336; Porsolt, Rev. Neurosci. 11 (2000), 53-58; Rénéric et al., Behav. Brain Res. 136 (2002), 521-532; Page et al., Psychopharmacology 165 (2003), 194-201; Kelliher et al., Psychoneuroendocrinology 28 (2003), 332-347). The test consists of placing a mouse for a period of 5 minutes into a glass cylinder containing water. Under such circumstances, the mouse cannot touch the bottom of the cylinder and is thus forced to swim. Time, latency and frequency of struggling versus floating are scored as behavioural parameters. […] Increased struggling (i.e. active attempts to escape) indicates active coping behaviour that can be interpreted as an improvement of depression-like symptoms. For example, treatment with serotonergic antidepressants reduce the total time spent floating (Borsini, Neurosci. Biobehav. Rev. 19 (1995), 377-395; Redrobe and Bourin, Psychopharmacology 138 (1998), 198-206, and in parallel increases the time of active behaviour (i.e. swimming or struggling; Lucki et al., Psychopharmacology 155 (2001), 315-322).
The behaviour of individual mice was assessed using the Porsolt's forced swim test 24 hours after injection of vehicle solution, KN-62, or oATP. A pre-exposure of 5 minutes to the test was performed 15-17 minutes after administration of vehicle, KN-62, or oATP. A description of the Porsolt's forced swim test is given in example 9. […]

Substance: 2′-3′-O-(4-Benzoylbenzoyl)adenosine 5′-triphosphate [BzATP]
- passive behaviour (time, frequency, latency of floating) in the forced swim test (latency and frequency of floating statistically significant): decrease
- active escape attempts (time, frequency, latency of struggling) in the forced swim test (time struggling statistically significant): increase
